We go through 2 molecules from patent publication US11844841B2, “Dosing regimens and related compositions and methods” (Apellis Pharmaceuticals, Inc., priority 2017, dated 2023).

One may read the NOAEL as the highest tested level that showed no adverse finding.

The nature of data set [1]: Inhalation study, repeated dosing. The settings on record: in vivo, inhaled or intranasal, 25 mg/kg/d; 7 day repeated dose study in the dog. On the procedure:
(§1) Inhalation studies of single dose or repeated dosing were conducted in dog and cynomolgus monkey. […] These doses were 25 mg/kg/d in a 7 day repeated dose study in the dog, 80 mg/kg in a single dose study in the monkey, and 30 mg/kg/day in a 14 day repeated dose in the monkey.

Data set [2] is described as follows: Phase 1 single and multiple ascending dose trial of inhaled (nebulized) CA28 in healthy volunteers. Format: in vivo, human. The settings on record: for adverse event: one subject. The method, then:
In the single ascending dose part of the trial, 16 subjects were enrolled in four cohorts of four subjects each.
Four subjects were enrolled in the first cohort of the multiple ascending dose part of the trial. These subjects were to receive 14 consecutive days of treatment with a 60 mg/day dose of the drug. […] The trial was paused and subsequently resumed, with subjects receiving 30 mg/day. […] The trial was then terminated.

A short description of data set [3]: Inhalation studies, single dose and repeated dosing. Format: in vivo, cynomolgus monkey. The method, then:
as §1

In another data set the test system is PNH RBCs. Description: Modified Ham's assay, comparison with Soliris (Example 19). To be noted: CA28-2GS-BF 50 ug/ml. Format: cell-based, human. On the procedure: Flow cytometry was performed after antibody staining using antibodies against CD59 and C3d. In this figure, quadrant 1 (Q1) and quadrant 3 (Q3) represent Type III cells. Quadrant 2 (Q2) and quadrant 4 (Q4) represent Types I and II cells. Q1 and Q2 represent cells with a significant and abnormally high amount of C3 activation product (e.g., C3d) deposition. Q3 and Q4 represent cells without significant C3d deposition or somewhat elevated level (right portion of Q4) but less so than Q2 cells.

The test system of data set [4] is RBCs from a patient with PNH. Description: Modified Ham's test with flow cytometry for CD59 and C3d (Example 18). It counts as cell-based, human. The method, then:
A modified Ham's test was performed to assess the ability of compstatin analogs to protect PNH RBCs from complement-mediated lysis. […] Exposure to heat inactivated human serum was used as a control representing no significant complement-mediated lysis as complement is inactivated by heat. Exposure to acidified human serum and magnesium (Mg^2+) in the absence of complement inhibitors (pane labeled Mg^2+) was used as a control representing maximum lysis.
Following incubation, cells were stained with antibodies to CD59 and C3d. CD59 level permitted the classification of the PNH RBCs as Type I, Type II, or Type III. Staining for C3d, a product of C3 activation and cleavage was used as a marker of C3 and C3 activation product deposition (loading). Flow cytometric analysis was performed to assess CD59 and C3d on RBC surfaces and to quantify the percentages of Type I, Type II, and Type III cells present in various samples.
Type I cells (shown in orange in FIG. 12) have normal levels of CD59. Type III cells (shown in blue in FIG. 12) have essentially no detectable CD59. […] Type II cells (shown in purple in FIG. 12) have reduced levels of CD59 as compared with normal or Type I cells and have an intermediate sensitivity to complement-mediated lysis. […] Type II cells may eventually lyse in the presence of activated complement but can accumulate a considerable amount of C3 activation products such as C3d before they do so. Reduction in or absence of lysis may be evidenced by increased levels of C3 or C3 activation products on Type II cells, as is evident by comparing the level of C3d on Type II cells in the no lysis panel with the level of C3d on Type II cells in the max. lysis panel in both FIGS. 12(A) and 12(B). […] A shift in the relative percentages of Type I, II, and III cells from the percentages present in the max. lysis control panels (Mg^2+) towards the percentages present in the no lysis control panels (heat inactivated serum) is indicative of protection against complement-mediated lysis. The column labeled % C′3 in Table 11 refers to the percentage of cells deemed “positive” for presence of C3 and C3 activation products (“C3 loading”).

For data set [5], the system named is complement activation via the classical pathway. Description: Classical complement inhibition assay (C3b deposition ELISA). Format: biochemical, human. The method, then: Inhibitory activity of the synthesized compounds was assessed by measuring the effect of the compounds on complement activation via the classical pathway using a standard complement inhibition assay. The protocol measures C3b deposition in an ELISA format. C3b deposition monitored using this method is generated through complement activated by the classical pathway. Briefly, 96-well plates are coated with BSA. Human plasma, chicken ovalbumin (OVA), polyclonal anti-OVA antibodies and compound being tested (referred to as “drug”) are added and incubated, followed by addition of Anti-human C3 HRP-conjugated antibody. After an additional incubation, substrate is added and signal detected. Details of the protocol are as follows:
Protocol for Classical Complement Inhibition Assay
• Ninety-six well plate (polystyrene plate, Thermo Scientific, 9205) • Chicken OVA (Sigma A5503-5G) • Rabbit anti-chicken OVA (Abcam ab1221) • Blocking buffer (Startingblock buffer, Thermo Scientific 37538) • Veronal Buffer (5× concentration, Lonza 12-624E) • Human plasma (collected with Lepirudin at 50 ug/ml final concentration) • Goat anti-human C3 HRP-conjugated Ab (MP Biomedicals, 55237) • Tween-20 Wash Buffer (0.05% Tween 20-PBS buffer) • TMB (Peroxidase substrate, BD 555214)—1:1 mixture of BD 51-2607KC and 51-2606KC. • 1M H2SO4 Protocol: • 1. […]
Data was analyzed using GraphPad Prism5 software. […]
(In general: ELISA stands for enzyme-linked immunosorbent assay.)

In turn, `CC[C@H](C)[C@H](NC(C)=O)C(=O)N[C@H]1CSSC[C@@H](C(=O)N[C@H](C(N)=O)[C@@H](C)O)NC(=O)[C@H](CCCNC(=N)N)NC(=O)[C@H](Cc2cnc[nH]2)NC(=O)[C@H](C)NC(=O)CNC(=O)[C@H](Cc2c[nH]c3ccccc23)NC(=O)[C@H](CC(=O)O)NC(=O)[C@H](CCC(N)=O)NC(=O)[C@H](Cc2cn(C)c3ccccc23)NC(=O)[C@H](C(C)C)NC1=O` [CA28] registered an NOAEL at 168 h in data set [1] of 25 mg/kg/day. The adverse event result in data set [2] (30 mg/day inhaled, after 10 days of treatment) was “signs and symptoms consistent with a potential bacterial infection”; in data set [2] (60 mg/day inhaled, after nine days of treatment), “signs and symptoms consistent with a potential bacterial infection”. Moreover, the safety and tolerability entry in data set [2] (single inhaled doses 20, 60, 150 or 350 mg) is “well tolerated and no serious adverse events were reported”. The “highest inhaled dose tested, no drug-related findings” value in data set [3] (14 day repeated dose in the monkey) stood at 30 mg/kg/day. The no observed adverse effect level (NOAEL) in data set [3] (cynomolgus monkey, in vivo, inhaled or intranasal, 80 mg/kg, single dose study in the monkey) worked out at 80 mg/kg.
Take “CA28-2GS-BF: Bifunctional linear 40 kD PEG of the GS (glutaryl NHS ester) type coupled to two CA28-AEEAc-Lys moieties”: in the data set on PNH RBCs, the “deposition of C3d on PNH RBCs” value was “essentially no deposition of C3d”. The “Type I % C′3” value in data set [4] (compound at 20 micrograms/ml) came to 2.18%; in data set [4] (compound at 40 micrograms/ml) it was 2.84%; in data set [4] (compound at 50 micrograms/ml) it was 2.26%; in data set [4] (compound at 60 micrograms/ml) it was 2.05%; in data set [4] (compound at 100 micrograms/ml), 0.07%; in data set [4] (compound at 200 micrograms/ml), 0.02%. The “Type I % C′3” value in data set [4] (compound at 500 micrograms/ml) worked out at 0.04%. Also, the “Type II % C′3” value in data set [4] (compound at 20 micrograms/ml) is given as 12.28%; in data set [4] (compound at 60 micrograms/ml), 13.04%; in data set [4] (compound at 100 micrograms/ml), 0.88%; in data set [4] (compound at 200 micrograms/ml), 0.26%; in data set [4] (compound at 500 micrograms/ml), 0.3%. Moreover, the “Type III % C′3” value in data set [4] (compound at 20 micrograms/ml) is 0.99%; in data set [4] (compound at 40 micrograms/ml), 1.21%; in data set [4] (compound at 50 micrograms/ml) it was 1.29%; in data set [4] (compound at 60 micrograms/ml), 1.44%; in data set [4] (compound at 100 micrograms/ml), 0.11%; in data set [4] (compound at 200 micrograms/ml), 0.02%. Besides, the “Type III % C′3” value in data set [4] (compound at 500 micrograms/ml) was 0.05%. In data set [4] (in the presence of 100 ug/ml or more compstatin analog), the “protection of PNH RBCs from complement-mediated lysis” value is “complete protection from complement-mediated lysis”. Besides, the “complement inhibiting activity, comparison in words” value in data set [5] was “virtually identical”.
